The target of assay [1] is T1, His6-TEV-PPARγ-(234-505) (Homo sapiens, UniProt P37231).
T1 construct: The His6-TEV-PPARγ-(234-505) protein for assay was expressed and purified; TEV cleavage site (N); made in house
T1 sequence (P37231 234-505): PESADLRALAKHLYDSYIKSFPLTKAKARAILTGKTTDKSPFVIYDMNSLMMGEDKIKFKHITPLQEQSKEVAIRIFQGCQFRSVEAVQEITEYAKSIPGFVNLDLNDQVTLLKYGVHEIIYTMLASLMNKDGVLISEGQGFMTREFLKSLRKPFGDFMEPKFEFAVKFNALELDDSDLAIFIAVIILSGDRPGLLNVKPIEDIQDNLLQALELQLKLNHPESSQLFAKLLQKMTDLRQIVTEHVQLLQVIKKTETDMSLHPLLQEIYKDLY
As to the kind of experiment: TR-FRET Assay to Measure Co-R Peptide Recruitment to PPARγ. Particulars: Co-R peptide (SMRT-ID2) recruitment; top final concentration 20 μM; read-out: TR-FRET i-Ag; AC50. The assay is classed as biochemical. The method in brief:
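His-tagged PPARγ (or controls) was preincubated with compound for 20 minutes at room temperature, then 5 nM anti-His terbium antibody and 200 nM FITC-labeled SMRT-ID2 corepressor peptide (final) were added for a further hour. TR-FRET signal was normalized to percent response using 500 nM T0070907 and DMSO controls.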
In general terms: In TR-FRET formats the signal depends on donor and acceptor labels being close together.

Assay [2] deals with UM-UC-9 engineered cells. As to the kind of experiment: Cell proliferation / short-term viability assay, CellTiter-Glo 144 h. The assay is classed as cell-based, human. The settings on record: Homo sapiens, UM-UC-9, 144 h, read-out: CTGlo 144 h UMUC9.5, G150. In outline:
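UM-UC-9 engineered assay-ready cells seeded at 500 cells/well in high-glucose DMEM/10% FBS, treated from dose-response plates, grown at 37° C, 5% CO2. CellTiter-Glo 2.0 luminescence read on day 7, with a day-0 pretreatment plate as T0 reference and DMSO wells as negative control.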
Background: ATP-based viability assays read luminescence as a measure of living cells.

Each structure is given as a SMILES string.

Take `COc1cc(-c2cc(C(=O)N3CC[C@H](C(=O)NC4CCC5(CCCN5CC(C)(F)F)CC4)CC34CC4)n[nH]2)c(F)cn1` (stereo partly drawn) [Example 351, (S)—N-(1-(2,2-difluoropropyl)-1-azaspiro[4.5]decan-8-yl)-4-(5-(5-fluoro-2-methoxypyridin-4-yl)-1H-pyrazole-3-carbonyl)-41-azaspiro[2.5]octane-7-carboxamide]: the AC50 in assay [1] was 0.256 µM. The IC50 in assay [2] came to 0.45 µM.
Taken in the same sequence, the figures for `COc1cc(-c2cc(C(=O)N3CC[C@H](C(=O)N[C@H]4CC[C@@](OC[C@H](C)N)(C(F)(F)F)CC4)CC34CC4)n[nH]2)c(F)cn1` [Example 352, (S)—N-((1548)-4-((S)-2-aminopropoxy)-4-(trifluoromethyl)cyclohexyl)-4-(5-(5-fluoro-2-methoxypyridin-4-yl)-1H-pyrazole-3-carbonyl)-4-azaspiro[2.5]octane-7-carboxamide] were 0.0077 µM and 0.134 µM.
Taken in the same sequence, the figures for `COc1cc(-c2cc(C(=O)N3CC[C@H](C(=O)N[C@H]4CC[C@@](OC[C@H](C)O)(C(F)(F)F)CC4)CC34CC4)n[nH]2)c(F)cn1` [Example 353, (S)-4-(5-(5-fluoro-2-methoxypyridin-4-yl)-1H-pyrazole-3-carbonyl)-N-((1S,4S)-4-((S)-2-hydroxypropoxy)-4-(trifluoromethyl)cyclohexyl)-4-azaspiro[2.5]octane-7-carboxamide] were 0.0066 µM and 0.006 µM.
Taken in the same sequence, the figures for `COc1cc(-c2cc(C(=O)N3CC[C@H](C(=O)NC4CC5CCC(C4)O5)CC34CC4)n[nH]2)c(F)cn1` (stereo partly drawn) [Example 354, (7S)—N-(8-oxabicyclo[3.2.1]octan-3-yl)-4-(5-(5-fluoro-2-methoxypyridin-4-yl)-1H-pyrazole-3-carbonyl)-4-azaspiro[2.5]octane-7-carboxamide] were 0.0241 µM and 0.0286 µM.
As for `COc1cc(-c2cc(C(=O)N3CC[C@H](C(=O)NCc4ncccc4Cl)CC34CC4)n[nH]2)c(F)cn1` [Example 358, (S)—N-((3-chloropyridin-2-yl)methyl)-4-(5-(5-fluoro-2-methoxypyridin-4-yl)-1H-pyrazole-3-carbonyl)-4-azaspiro[2.5]octane-7-carboxamide], the AC50 in assay [1] was found to be 0.0051 µM. Further, the IC50 in assay [2] came out at 0.0034 µM.
Taken in the same sequence, the figures for `COc1cc(-c2cc(C(=O)N3CC[C@H](C(=O)NCc4ncccc4C)CC34CC4)n[nH]2)c(F)cn1` [Example 359, (S)-4-(5-(5-fluoro-2-methoxypyridin-4-yl)-1H-pyrazole-3-carbonyl)-N-((3-methylpyridin-2-yl)methyl)-4-azaspiro[2.5]octane-7-carboxamide] were 0.008 µM and 0.0199 µM.
Taken in the same sequence, the figures for `COc1cc(-c2cc(C(=O)N3CC[C@H](C(=O)NCc4ncc(F)cc4C)CC34CC4)n[nH]2)c(F)cn1` [Example 361, (S)-4-(5-(5-fluoro-2-methoxypyridin-4-yl)-1H-pyrazole-3-carbonyl)-N-((5-fluoro-3-methylpyridin-2-yl)methyl)-4-azaspiro[2,5]octane-7-carboxamide] were 0.0102 µM and 0.0178 µM.
For `COc1cc(-c2cc(C(=O)N3CC[C@H](C(=O)NCc4ncc(F)cc4Cl)CC34CC4)n[nH]2)c(F)cn1` [Example 362, (S)—N-((3-chloro-5-fluoropyridin-2-yl)methyl)-4-(5-(5-fluoro-2-methoxypyridin-4-yl)-1H-pyrazole-3-carbonyl)-4-azaspiro[2.5]octane-7-carboxamide], the AC50 in assay [1] turned out to be 0.0037 µM. In addition, the IC50 in assay [2] worked out at 0.0087 µM.
Taken in the same sequence, the figures for `COc1cc(-c2cc(C(=O)N3CC[C@H](C(=O)NCc4ncc(F)cc4C(F)(F)F)CC34CC4)n[nH]2)c(F)cn1` [Example 363, (S)-4-(5-(5-fluoro-2-methoxypyridin-4-yl)-1H-pyrazole-3-carbonyl)-N-((5-fluoro-3-(trifluoromethyl)pyridin-2-yl)methyl)-4-azaspiro[2.5]octane-7-carboxamide] were 0.006 µM and 0.0035 µM.
`COc1cc(-c2cc(C(=O)N3CC[C@H](C(=O)NCc4ncc(C(C)(C)O)cc4Cl)CC34CC4)n[nH]2)c(F)cn1` [Example 364, (S)—N-((3-chloro-5-(2-hydroxypropan-2-yl)pyridin-2-yl)methyl)-4-(5-(5-fluoro-2-methoxypyridin-4-yl)-1H-pyrazole-3-carbonyl)-4-azaspiro[2.5]octane-7-carboxamide]: the AC50 in assay [1] worked out at 0.0131 µM. In assay [2], the IC50 was found to be 0.0562 µM.
Taken in the same sequence, the figures for `COc1cc(-c2cc(C(=O)N3CC[C@H](C(=O)NCC45CC(C(F)(F)F)(CO4)C5)CC34CC4)n[nH]2)c(F)cn1` [Example 365, (S)-4-(5-(5-fluoro-2-methoxypyridin-4-yl)-1H-pyrazole-3-carbonyl)-N-((4-(trifluoromethyl)-2-oxabicyclo[2.1.1]hexan-1-yl)methyl)-4-azaspiro[2.5]octane-7-carboxamide] were 0.01 µM and 0.0219 µM.
Taken in the same sequence, the figures for `COc1cc(-c2cc(C(=O)N3CC[C@H](C(=O)NCc4cn5c(n4)COCC5)CC34CC4)n[nH]2)c(F)cn1` [Example 371, (S)—N-((5,6-dihydro-8H-imidazo[2,1-c][1,4]oxazin-2-yl)methyl)-4-(5-(5-fluoro-2-methoxypyridin-4-yl)-1H-pyrazole-3-carbonyl)-4-azaspiro[2.5]octane-7-carboxamide] were 0.0364 µM and 0.339 µM.
Taken in the same sequence, the figures for `COc1cc(-c2cc(C(=O)N3CC[C@H](C(=O)Nc4cnn5ccc(C)nc45)CC34CC4)n[nH]2)c(F)cn1` [Example 381, (S)-4-(5-(5-fluoro-2-methoxypyridin-4-yl)-1H-pyrazole-3-carbonyl)-N-(5-methylpyrazolo[1,5-a]pyrimidin-3-yl)-4-azaspiro[2.5]octane-7-carboxamide] were 0.0123 µM and 0.0058 µM.
Take `COc1cc(-c2cc(C(=O)N3[C@@H]4CC[C@H]3C[C@H](C(=O)NCc3ncc(F)cc3Cl)C4)n[nH]2)c(F)cn1` [Example 384, (1R,3s,5S)—N-((3-chloro-5-fluoropyridin-2-yl)methyl)-8-(5-(5-fluoro-2-methoxypyridin-4-yl)-1H-pyrazole-3-carbonyl)-8-azabicyclo[3.2.1]octane-3-carboxamide]: in assay [1], the AC50 turned out to be 0.0152 µM. Moreover, the IC50 in assay [2] was 0.0821 µM.
As for `COc1cc(-c2cc(C(=O)N3CC[C@H](C(=O)NCc4nnccc4C)CC34CC4)n[nH]2)c(F)cn1` [Example 386, (S)-4-(5-(5-fluoro-2-methoxypyridin-4-yl)-1H-pyrazole-3-carbonyl)-N-((4-methylpyridazin-3-yl)methyl)-4-azaspiro[2.5]octane-7-carboxamide], in assay [1], the AC50 was 0.181 µM. The IC50 in assay [2] came to 0.231 µM.
Taken in the same sequence, the figures for `COc1cc(-c2cc(C(=O)N3CC[C@H](C(=O)NCc4nc(C)ncc4Cl)CC34CC4)n[nH]2)c(F)cn1` [Example 387, (S)—N-((5-chloro-2-methylpyrimidin-4-yl)methyl)-4-(5-(5-fluoro-2-methoxypyridin-4-yl)-1H-pyrazole-3-carbonyl)-4-azaspiro[2,5]octane-7-carboxamide] were 0.0144 µM and 0.0225 µM.
Taken in the same sequence, the figures for `COc1cc(-c2cc(C(=O)N3CC[C@H](C(=O)NCc4nccnc4Cl)CC34CC4)n[nH]2)c(F)cn1` [Example 388, (S)—N-((3-chloropyrazin-2-yl)methyl)-4-(5-(5-fluoro-2-methoxypyridin-4-yl)-1H-pyrazole-3-carbonyl)-4-azaspiro[2.5]octane-7-carboxamide] were 0.0114 µM and 0.0176 µM.
Taken in the same sequence, the figures for `COc1cc(-c2cc(C(=O)N3CC[C@H](C(=O)NCc4ncc(F)cc4OC)CC34CC4)n[nH]2)c(F)cn1` [Example 389, (S)-4-(5-(5-fluoro-2-methoxypyridin-4-yl)-1H-pyrazole-3-carbonyl)-N-((5-fluoro-3-methoxypyridin-2-yl)methyl)-4-azaspiro[2.5]octane-7-carboxamide] were 0.0103 µM and 0.013 µM.
As to `COc1cc(-c2cc(C(=O)N3CC[C@H](C(=O)NCc4ncc(C#N)cc4Cl)CC34CC4)n[nH]2)c(F)cn1` [Example 391, (S)—N-((3-chloro-5-cyanopyridin-2-yl)methyl)-4-(5-(5-fluoro-2-methoxypyridin-4-yl)-1H-pyrazole-3-carbonyl)-4-azaspiro[2.5]octane-7-carboxamide], the AC50 in assay [1] was 0.0195 µM. In addition, the IC50 in assay [2] was found to be 0.0813 µM.
Taken in the same sequence, the figures for `COc1cc(-c2cc(C(=O)N3CC[C@H](C(=O)NCc4ncc(C5COC5)cc4Cl)CC34CC4)n[nH]2)c(F)cn1` [Example 392, (S)—N-((3-chloro-5-(oxetan-3-yl)pyridin-2-yl)methyl)-4-(5-(5-fluoro-2-methoxypyridin-4-yl)-1H-pyrazole-3-carbonyl)-4-azaspiro[2.5]octane-7-carboxamide] were 0.0091 µM and 0.0452 µM.
